In ChEMBL document CHEMBL3244333, “2-Acetylpyridine thiosemicarbazones. 2. N4,N4-Disubstituted derivatives as potential antimalarial agents” (J Med Chem, 1979):
Calls of active or inactive are those of the source. The calls are words filed in the database; no cut-off is given here.

Legend:
Mus musculus [1] = assay: Toxicity in Plasmodium berghei KBG 173 infected mouse at 160 mg/kg; type: organism-based; parameters: dose 160 mg/kg; conditions: in vivo
Plasmodium berghei [2] = assay: Antimalarial activity against Plasmodium berghei KBG 173 infected in mouse assessed as increase of mean survival time at 40 mg/kg; type: functional
Plasmodium berghei [3] = assay: Antimalarial activity against Plasmodium berghei KBG 173 infected in mouse assessed as cured animal from parasite infection at 320 mg/kg; type: functional, organism-based; parameters: dose 320 mg/kg
Plasmodium berghei [4] = assay: Antimalarial activity against Plasmodium berghei KBG 173 infected in mouse assessed as increase of mean survival time at 320 mg/kg; type: functional
Plasmodium berghei [5] = assay: Antimalarial activity against Plasmodium berghei KBG 173 infected in mouse assessed as increase of mean survival time at 80 mg/kg; type: functional
Plasmodium berghei [6] = assay: Antimalarial activity against Plasmodium berghei KBG 173 infected in mouse assessed as increase of mean survival time at 640 mg/kg; type: functional
Mus musculus [7] = assay: Toxicity in Plasmodium berghei KBG 173 infected mouse at 320 mg/kg; type: organism-based; parameters: dose 320 mg/kg; conditions: in vivo
Plasmodium berghei [8] = assay: Antimalarial activity against Plasmodium berghei KBG 173 infected in mouse assessed as cured animal from parasite infection at 160 mg/kg; type: functional, organism-based; parameters: dose 160 mg/kg
Mus musculus [9] = assay: Toxicity in Plasmodium berghei KBG 173 infected mouse at 640 mg/kg; type: organism-based; parameters: dose 640 mg/kg; conditions: in vivo
Mus musculus [10] = assay: Toxicity in Plasmodium berghei KBG 173 infected mouse at 40 mg/kg; type: organism-based; parameters: dose 40 mg/kg; conditions: in vivo
Plasmodium berghei [11] = assay: Antimalarial activity against Plasmodium berghei KBG 173 infected in mouse assessed as increase of mean survival time at 160 mg/kg; type: functional
Plasmodium berghei [12] = assay: Antimalarial activity against Plasmodium berghei KBG 173 infected in mouse assessed as cured animal from parasite infection at 640 mg/kg; type: functional, organism-based; parameters: dose 640 mg/kg
Plasmodium berghei [13] = assay: Antimalarial activity against Plasmodium berghei KBG 173 infected in mouse assessed as cured animal from parasite infection at 40 mg/kg; type: functional, organism-based; parameters: dose 40 mg/kg
Plasmodium berghei [14] = assay: Antimalarial activity against Plasmodium berghei KBG 173 infected in mouse assessed as cured animal from parasite infection at 80 mg/kg; type: functional, organism-based; parameters: dose 80 mg/kg
Mus musculus [15] = assay: Toxicity in Plasmodium berghei KBG 173 infected mouse at 80 mg/kg; type: organism-based; parameters: dose 80 mg/kg; conditions: in vivo

Row | Compound | Activity (Mus musculus [1]) | Survival (Plasmodium berghei [2]) [days] | Activity (Plasmodium berghei [3]) | Survival (Plasmodium berghei [4]) [days] | Survival (Plasmodium berghei [5]) [days] | Survival (Plasmodium berghei [6]) [days] | Activity (Mus musculus [7]) | Activity (Plasmodium berghei [8]) | Activity (Mus musculus [9]) | Activity (Mus musculus [10]) | Survival (Plasmodium berghei [11]) [days] | Activity (Plasmodium berghei [12]) | Activity (Plasmodium berghei [13]) | Activity (Plasmodium berghei [14]) | Activity (Mus musculus [15])
1 | C/C(=N/NC(=S)N(C)CCc1ccccn1)c1ccccn1 | Toxic | 1.7 | Active | 6.7 | 3.3 | 0 | Toxic | Active | Toxic | Toxic | 0 |  |  |  | 
2 | CCN(CC)C(=S)N/N=C(/C)c1ccccn1 | Toxic | 7.2 |  |  |  | 0 |  | Active | Toxic |  |  | Active | Active | Active | Toxic
3 | C/C(=N/NC(=S)N(C)Cc1ccccc1)c1ccccn1 | Toxic | 4 | Active |  |  |  | Toxic | Active | Toxic |  |  | Active |  | Active | Toxic
